In US6337316B1, “Pharmaceutical compositions thereof, and methods of using same” (Applied Research Systems ARS Holding N.V., priority 1997, dated 2002):
Where two headings read alike, the source gives them in different places. Bridge positions count the residues as written; N and C are the ends. Ends that are not written are not given here. iodoacetamide‑alkyl = not defined here

Assays:
[1] = test system: lymphocyte proliferation in the human MLR; format: cell-based; details: for Human MLR (ability to inhibit lymphocyte proliferation, cpm): peptide 12.5 to 100 μM, assays of 1/24, 1/31, 3/6, 4/17, 5/2, one symbol per assay; for effect on the human MLR in combination with CTLA-4Ig: CTLA-4Ig spiked in at 0.5 μg/ml (FIG. 8); for effect on the MLR, retest: two MLRs, peptide by itself, concentrations up to 200 μM
Experimental: Whole blood from donors was obtained from Interstate Blood Bank, Memphis, Tenn. Blood specimens were handled in a biosafety level 2 containment facility as recommended for potentially infectious blood specimens in the CDC/NIH manual Biosafety in Microbiological and Biomedical Laboratories; 3rd edition, 1993, page 10. Peripheral blood mononuclear cells (PBMC) were separated from red blood cells and granulocytes by ficoll-hypaque purification. Whole peripheral blood was diluted 1:2 in PBS and 30 ml was overlayed onto 15 ml of ficoll-hypaque in 50 ml polypropylene tubes. The tubes were spun at 400×g for 30 min at 25° C. Following centrifugation, the interface between the upper plasma layer and the lower ficoll layer was collected, cells washed in RPMI-1640 2×, and viable counts determined using trypan blue. Cells to be used as responders in the assay were stored on ice until mitomycin C treatment of stimulator cells was completed.
PBMC, isolated as described above, to be used as stimulators in the assay were adjusted to 2-4×10^6 cells/ml in complete medium (RPMI 1640 containing 10% heat-inactivated human AB serum, 2 mM glutamine, 50 μM 2-mercaptoethanol and 100 U/ml penicillin-100 μg/ml streptomycin), and treated with mitomycin C (25 μg/ml) for 30 min in a 37° C. water bath. Following treatment, cells were washed with S volumes of complete medium 3×, and viable counts determine using trypan blue. To set up autologous stimulation controls some responder cells were also treated with mitomycin C as mentioned above.
Purified CTLA-4Ig fusion protein was produced, as described in Steurer et al. 1995, from a NS-1 cell line kindly donated by Dr. T. Strom (Beth Israel Hospital, Boston, Mass.) as a 1 mg/ml solution in sterile PBS. The protein was stored frozen at −80° C. Upon thawing, the aliquot was stored at 4° C. Purified peptides were lyophilized according to known procedures. Peptides were reconstituted in sterile PBS, pH 7.4 at 2 mM concentration, aliquoted in microfuge cubes and stored frozen at −20° C. For the assay, an aliquot of the peptide was thawed and diluted to 200 μM in complete medium.
For the one-way allogeneic mixed lymphocyte response (MLR) assay, responder cells were plated at 10^6 cells/well, and stimulator cells at 5×10^4 cells/well in 96-well round bottom plates. Cells were incubated with serial dilutions of the anti-CD4 Ab Leu 3A (1 μg/ml-0.06 μg/ml) in triplicate, or an isotype-matched control Ab. Cyclosporin A at 1 μg/ml was used as an additional control.
CTLA-4 Ig was serially diluted an.4 tested from 10 μg/ml to 0.15 μg/ml. Peptides were tested either directly or in the presence of a constant spiked-in dose of CTLA-4 Ig at 0.5 μg/ml. The plates were incubated at 37° C. in a humidified 5% CO2 atmosphere for 7 days.
Proliferation of the cells was determined by pulsing the wells with ^3H-Tdr (1 μCi/well) for the last 18 h of the assay. Plates were harvested using a Tomtec -late harvester and the counts incorporated determined using a Wallac microbetaplate plus reader.
A total of 34 peptides were tested for inhibition of lymphocyte proliferation in the human MLR. Each peptide was tested in a MLR at doses ranging from 12.5 to 100 μM. The activity of each peptide was identified by assigning a + and − tone peptide depending on its ability to inhibit lymphocyte proliferation in the MLR (cpms).

[2] = test system: binding of CTLA-4Ig to B7 on Cess B cells; assay: CTLA-4Ig/B7 binding assay on Cess B cells by FACS; set-up: key to Binding Assay (effect on CTLA-4Ig binding to Cess B cells): −: no change in binding; +: a minor change of <10% in binding; ++: a change of >20% in binding; details: for Binding Assay (effect on CTLA-4Ig binding to Cess B cells): FACS, assays of 3/24, 3/25, 4/5, 4/25, one symbol per assay; for effect on CTLA-4Ig binding, retest in the Cess B binding assay: retest of positives from primary screening
Experimental: +++ was assigned if the peptide tested gave >50% change in cpm in a dose dependent fashion. In addition to the MLR, these 34 peptides were also evaluated in a CTLA-4Ig/B7 binding assay in which the ability of these peptides to affect the binding of CTLA-4Ig to B7 on Cess B cells was examined by FACS analysis.
As with the MLR, a + or − was assigned to each peptide depending on its ability to effect CTLA-4Ig binding to Cess B cells; where − represents no change in binding, + represents a minor change of <10% in binding, and a ++ represents a change of >20% in binding.

| Substance | Human MLR (ability to inhibit lymphocyte proliferation, cpm) [1] | Binding Assay (effect on CTLA-4Ig binding to Cess B cells) [2] | further results |
| --- | --- | --- | --- |
| ADSQVTEV [AT 127.1] | −, − | +/−, +/− |  |
| ADSQVTEV-OH [AT 124.1] | −, − | +, − |  |
| AT 199.2A: resynthesis of AT 199.1, refolding prolonged to 5 days at pH 10.0; fully cyclized version (RKCLMYPPPYYCHH; disulfide 3-12 (inferred); not fully specified (C-terminus)) |  |  | inhibition of the human MLR ([1]; 100 μM, another MLR): 25%; inhibition of the human MLR ([1]; 100 μM, one MLR): 50%; effect on the human MLR in combination with CTLA-4Ig [1]: additive |
| AT 199.2B: AT 199 treated with iodoacetamide, purely linear analog with alkylated cysteines (RKC(iodoacetamide‑alkyl)LMYPPPYYC(iodoacetamide‑alkyl)HH; not fully specified (C-terminus); reading uncertain) |  |  | effect on the human MLR in combination with CTLA-4Ig [1]: no effect; inhibition of the MLR, in words ([1]; control and linear peptides compared with AT 199): no effect; inhibition of the human MLR ([1]; the MLR's, highest concentration (100 μM) tested): < 10% |
| CDDSIC (disulfide 1-6 (inferred)) [AT 131.1] | +, −, − |  |  |
| CEYASPGKATEVC (disulfide 1-13 (inferred)) [AT 123.1] | −, − | +/−, − |  |
| CKGLDSAVEC (disulfide 1-10 (inferred)) [AT 108.1] | −, −, − | − |  |
| CKIEVMYPPPYC (disulfide 1-12 (inferred)) [AT 113.1] | − (all concentrations of peptide tested gave <15% change in cpm) | −, − |  |
| CKIEVMYPPPYLC (disulfide 1-13 (inferred)) [AT 114.1] | Toxic | Toxic |  |
| CKYSYNLFSREFC (disulfide 1-13 (inferred)) [AT 107.1] | −, +, +, − |  |  |
| CMYPPPYGKC (disulfide 1-10 (inferred)) [AT 110.1] | − (all concentrations of peptide tested gave <15% change in cpm) | −, − |  |
| CMYPPPYKAKC (disulfide 1-11 (inferred)) [AT 112.1] | − (all concentrations of peptide tested gave <15% change in cpm) | −, − |  |
| CMYPPPYYKAKC (disulfide 1-12 (inferred)) [AT 130.1] | −, − | −, − |  |
| CMYPPPYYRGGKC (disulfide 1-13 (inferred)) [AT 129.1] | −, − | ++ (a change of >20% in binding) |  |
| CMYPPQYGKC (disulfide 1-10 (inferred)) [AT 111.1] | −, +/− | − |  |
| CMYPPYLRGGKC (disulfide 1-12 (inferred)) [AT 109.1] |  | −, + |  |
| CRQADSQVTEC (disulfide 1-11 (inferred)) [AT 128.1] | ++, − | + (a minor change of <10% in binding) | effect on the MLR, retest [1]: none of these peptide by themselves had any consistent effect; effect on CTLA-4Ig binding, retest in the Cess B binding assay [2]: no effect |

| Substance | Human MLR (ability to inhibit lymphocyte proliferation, cpm) [1] | Binding Assay (effect on CTLA-4Ig binding to Cess B cells) [2] | further results |
| --- | --- | --- | --- |
| CSKTGFNC (disulfide 1-8 (inferred)) [AT 115.1] | − (all concentrations of peptide tested gave <15% change in cpm) | − |  |
| CSPNQC (disulfide 1-6 (inferred)) [AT 135.1] | +/−, − | ++ (a change of >20% in binding) | effect on the MLR, retest [1]: none of these peptide by themselves had any consistent effect; effect on CTLA-4Ig binding, retest in the Cess B binding assay [2]: no effect |
| CSSGNQVC (disulfide 1-8 (inferred)) [AT 132.1] | +, −, − | +, − |  |
| CSSPNQVC (disulfide 1-8 (inferred)) [AT 133.1] | ++, + | ++, − | effect on the MLR, retest [1]: none of these peptide by themselves had any consistent effect; effect on CTLA-4Ig binding, retest in the Cess B binding assay [2]: no effect |
| ECASPGKATEVC (not fully specified (bridges); cysteine pairing not given here) [AT 118.1] | − (all concentrations of peptide tested gave <15% change in cpm) |  |  |
| HVAQPA [AT 136.1] | ++, +, − | +++, + | effect on the MLR, retest [1]: none of these peptide by themselves had any consistent effect; effect on CTLA-4Ig binding, retest in the Cess B binding assay [2]: no effect |
| HVEQPA [AT 137.1] | −, + | +/−, − |  |
| HVEQPA-OH [AT 125.1] | −, − | −, + |  |
| KCSYNLFSREFC (not fully specified (bridges); cysteine pairing not given here) [AT 106.1] | ++, +, +, +/− | ++, ++ | effect on the MLR, retest [1]: none of these peptide by themselves had any consistent effect; effect on CTLA-4Ig binding, retest in the Cess B binding assay [2]: no effect |
| KILVKQS [AT 119.1] | −, +/− | − |  |
| KILVKQS-OH [AT 121.1] | +/−, − |  |  |
| KYLVKQS [AT 120.1] | −, +/− | − |  |
| KYLVKQS-OH [AT 122.1] | −, − | +, − |  |
| LDSAVEV [AT 116.1] | − (all concentrations of peptide tested gave <15% change in cpm) | − |  |
| LDSAVEV-OH [AT 117.1] | − (all concentrations of peptide tested gave <15% change in cpm) | + (a minor change of <10% in binding) |  |
| NECTFCDD (not fully specified (bridges); cysteine pairing not given here) [AT 197.1] | −, −, − | −, −, − |  |
